Source: patent US12281121B2, “N-containing heteroaryl derivative and pharmaceutical composition comprising same as active ingredient for prevention or treatment of cancer” (VORONOI Inc., priority 2019, dated 2025)

Legend:
RET (WT) = target: T1, RET (WT) (Homo sapiens, UniProt P07949); experiment: RET enzyme inhibitory ability, ADP-Glo kinase assay; assay type: biochemical; conditions: ATP 10 μM, 25° C., 1 hour
T1 construct: human RET (658-end, SIGNALCHEM); purchased SIGNALCHEM
T1 sequence (P07949 658-1114 limits assumed): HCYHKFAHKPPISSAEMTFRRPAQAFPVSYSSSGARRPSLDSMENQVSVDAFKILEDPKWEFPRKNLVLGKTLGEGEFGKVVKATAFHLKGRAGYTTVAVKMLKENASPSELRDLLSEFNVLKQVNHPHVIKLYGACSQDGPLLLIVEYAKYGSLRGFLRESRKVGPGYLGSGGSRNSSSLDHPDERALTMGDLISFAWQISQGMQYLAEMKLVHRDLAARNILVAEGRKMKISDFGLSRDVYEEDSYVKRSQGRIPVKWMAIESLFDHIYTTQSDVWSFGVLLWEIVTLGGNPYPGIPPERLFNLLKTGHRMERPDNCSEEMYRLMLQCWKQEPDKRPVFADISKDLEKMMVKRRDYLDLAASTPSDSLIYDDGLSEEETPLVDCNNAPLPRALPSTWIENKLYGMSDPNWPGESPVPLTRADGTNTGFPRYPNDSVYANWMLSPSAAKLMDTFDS
Procedure: The Example compound was reacted with a purified human RET (658-end, SIGNALCHEM) enzyme to evaluate the enzyme inhibitory ability by the following method. As a reaction buffer, a composition of 40 mM Tris-HCl pH 7.4, 20 mM MgCl2, 0.5 mg/mL BSA, and 50 μM DTT was used, and all experimental materials were reacted on the reaction buffer. After the human RET (658-end, 0.8 ng) enzyme was reacted with purified ATP (10 μM) and a specific substrate solution at 25° C. for 1 hour during the experiment, the enzyme activity was confirmed using in vitro ADP-Glo™ kinase assay (Promega). Luminescence was measured by reacting the enzyme activity reaction solution, the ADP-Glo reaction solution, and the enzyme activity detection solution at a ratio of 2:2:1. The degree of inhibition of enzyme activity according to the treatment concentration of each compound was calculated based on the […] of the enzyme activity of a solvent control group in which a compound was not treated, and in this case, the concentration of each compound which suppresses the […] enzyme activity by 50% was determined as an IC50 (nM) value. The IC50 (nM) of each compound was determined by 3 datasets and obtained using Prism (version 7.01, GraphPad) software.
In the enzyme assay column, RET (WT) is a non-mutated form, RET (V804M) is a mutated form in which the V amino acid at position 804 of the RET is substituted with M, and CCDC6-RET is a form in which the RET (WT) gene and CCDC6 gene are fused.

Ba/F3 (naive) cells = experiment: Cell proliferation inhibition, CellTiter-Glo; assay type: cell-based; conditions: Mus musculus, BaF3; Ba/F3 not transduced, 72 hours
Procedure: (§1) Among lung cancer cell lines, which express RET fusion genes, LC-2/ad cells were cultured after adding 10% FBS (HyClone) to RPMI:F12 (1:1) (Invitrogen), and F-12 (Invitrogen) supplemented with 10% FBS was used for TT cells. RPMI-1640 supplemented with 10% FBS and 5 ng/ml IL-3 (R&D Systems) was used for Ba/F3 cells. Transduced Ba/F3 cells were cultured by adding 1 ug/ml puromycin (Invitrogen) to the same medium. 24 hours before cells were treated with the compound, 3000 to 5000 cells were aliquoted into each well of a white clear bottom 96 well plate (Corning). The compound was diluted in DMSO (3-fold dilution, a total of 12 concentrations) and the compound was injected by 0.5 μl such that the final concentration was 0.3 nM to 50 μM. For the measurement of living cells, 72 hours after the compound treatment, the cells were stored at room temperature for 10 minutes using a CellTiter-Glo luminescent cell-viability agent (Promega), and then the luminescence intensity was measured using a reader (SynergyNeo, Biotek). Each experiment was repeated in triplicate. The result value was calculated by the cell growth ratio (%) compared to the control. A graph was drawn using the GraphPad Prism version 5.0 program, and a GI50 (nM) value was calculated.
(§2) In the cell assay column, LC-2/ad (with CCDC6-RET gene) is a lung cancer cell line, a TT cell line ([…]) is a thyroid cancer cell line, Ba/F3 CCDC6-RET (WT), Ba/F3 KIF5B-RET (WT), and Ba/F3 KIF5B-RET (V804M) are cells in which disease-related traits (CCDC6-RET, KIF5B-RET, and KIF5B-RET (V804M)) are introduced into Ba/F3 cells, and Ba/F3 (naive) is a cell which is not transduced.

[1] = system: Ba/F3 CCDC6-RET (WT) cells; experiment: Cell proliferation inhibition, CellTiter-Glo; assay type: cell-based; conditions: BaF3/CCDC6-RET, 72 hours
Procedure: as §1, §2

[2] = system: Ba/F3 KIF5B-RET (V804M) cells; experiment: Cell proliferation inhibition, CellTiter-Glo; assay type: cell-based; conditions: Mus musculus, BaF3, 72 hours
Procedure: as §1, §2

[3] = system: Ba/F3 KIF5B-RET (WT) cells; experiment: Cell proliferation inhibition, CellTiter-Glo; assay type: cell-based; conditions: Mus musculus, BaF3, 72 hours
Procedure: as §1, §2

TT cells = experiment: Cell proliferation inhibition, CellTiter-Glo; assay type: cell-based; conditions: Homo sapiens; TT thyroid cancer cell line, 72 hours
Procedure: as §1, §2

| SMILES | IC50 (RET (WT)) | GI50 (Ba/F3 (naive) cells) | GI50 [1] | GI50 [2] | GI50 [3] | GI50 (TT cells) |
| --- | --- | --- | --- | --- | --- | --- |
| COc1ccc(CN2C3CC2CN(c2ccc(-c4nc(Nc5cc(C)[nH]n5)c5sccc5n4)cn2)C3)cn1 [Example 2, 2-(6-(6-((6-methoxypyridin-3-yl)methyl)-3,6-diazabicyclo [3.1.1]heptan-3-yl)pyridin-3-yl)-N-(5-methyl-1H-pyrazol-3-yl)thieno[3,2-d]pyrimidin-4-amine] | 12 nM | 4380 nM | 49 nM | 14 nM | 11 nM | 48 nM |
| COc1ccc(CN2C3CC2CN(c2ccc(-c4nc(Nc5cc(C(F)(F)F)[nH]n5)c5occc5n4)cn2)C3)cn1 [Example 4, 2-(6-(6-((6-methoxypyridin-3-yl)methyl)-3,6-diazabicyclo [3.1.1]heptan-3-yl)pyridin-3-yl)-N-(5-(trifluoromethyl)-1H-pyrazol-3-yl)furo[3,2-d]pyrimidin-4-amine] | > 15000 nM | > 15000 nM | – | > 15000 nM | – | > 15000 nM |
| COc1ccc(CN2C3CC2CN(c2ccc(-c4nc5c(c(Nc6cc(C)[nH]n6)n4)CCC5)cn2)C3)cn1 [Example 7, 2-(6-(6-((6-methoxypyridin-3-yl)methyl)-3,6-diazabicyclo [3.1.1]heptan-3-yl)pyridin-3-yl)-N-(5-methyl-1H-pyrazol-3-yl)-6,7-dihydro-5H-cyclopenta[d]py-rimidin-4-amine] | 10 nM | 6070 nM | 45 nM | 7 nM | 15 nM | 41 nM |
